From patent US20260085253A1, “LILY OF THE VALLEY ODORANT” (Firmenich SA, priority 2022, published 2026)

What was measured:
Aedes aegypti = assay: Warm Body assay: repellent efficacy on mosquitoes; format: in vivo; details: 100 μL on warm body
Procedure: a) Warm Body Assay: Small-Scale Test Used to Screen the Repellent Efficacy on Mosquitoes at Different Concentrations. […] Anopheles gambiae is also a model organism as it is anthropophilic and transmits malaria. The controlling effect according to the present invention was assessed using an adapted Warm Body assay as defined in Kröber T, Kessler S, FreiJ, Bourquin M, Guerin P M. 2010. J Am Mosq Control Assoc. 26:381-386. In this in-vitro assay the number of mosquito landing on a warm body, simulating an attractive host treated with the tested stimuli, was measured in order to assess the repellence effect. The published protocol has been adapted as the switch from Anopheles gambiae to Aedes aegypti led to a decrease of mosquitoes placed in the tested cage due to the size difference (i.e. 30 mosquitoes instead of 50) and to an increase of lighting since Ae. aegypti is a diurnal mosquitoes (i.e. 150 lux instead of 4 lux). On the sandblasted glass Petri dish covering the warm body (28.3 cm^2), 100 μL of the compounds diluted at 5-8 concentrations in ethanol was applied. The number of mosquito landing on the warm body was counted for each stimulus and pure ethanol (solvent) as control. The stimuli tested were stim A (3-(4-isopropyl-2-methylphenyl)propanal at 96%) and stim B (a composition of matter comprising 3-(4-isopropyl-2-methylphenyl)propanal, 3-(2-isopropyl-4-methylphenyl)propanal and 3-(2-methyl-5-propan-2-ylphenyl)propanal at 88%, 5% and 2%, respectively) diluted in ethanol. Five to eight concentrations were assessed on each stimulus, missing data points mentioned as n.d. The mean number of mosquito landings with the solvent only (0 mg/mL) is equal to 64.5±10.1 landings in two minutes.

Ixodes ricinus = assay: Warm Plate assay: repellent efficacy on ticks; format: in vivo; details: for Percentage of repellence of ticks Ixodes ricinus on the warm plate: n = 12, last stage nymphs
Procedure: b) Warm Plate Assay: Small-Scale Test Used to Screen the Repellent Efficacy on Ticks at Different Concentrations.
Repellent efficacy of the different compounds was assessed against the sheep tick, Ixodes ricinus L that can transmit both bacterial and viral pathogens. I. ricinus is one of the recommended model organisms mentioned by the Guidance on the European […] [Vol IL, Efficacy—Assessment & Evaluation (Parts B+C), v6.0, Août 2023]. Observations of repellent efficacy were made on last stage nymphs.
The repellent efficacy was assessed using the protocol of the in-vitro Warm Plate Assay as defined in Kröber T, Bourquin M, Guerin P M. 2013. Pestic. Biochem. Phys. 107(2):160-168.
Ticks had the choice of crossing a zone with 3-(4-isopropyl-2-methylphenyl)propanal (96%) applied or to stay on their refuge without any compound applied. To motivate ticks' movement, the warm plate was heated at 33° C. (to mimic vertebrate skin temperature) and hold in a favourable environment (23° C., 85% RH).
The stimulus tested was stim A (3-(4-isopropyl-2-methylphenyl)propanal at 96%) diluted in ethanol. Twelve different ticks were tested for each of the four concentrations.

Question: What does the source list for `Cc1cc(C(C)C)ccc1CCC=O` [Stim A, 3-(4-isopropyl-2-methylphenyl)propanal]?
Answer: Percentage of repellence of mosquitoes Aedes aegypti landing on the warm body (Aedes aegypti; 0.0032 mg/mL in ethanol): 20%; Percentage of repellence of mosquitoes Aedes aegypti landing on the warm body (Aedes aegypti; 0.016 mg/mL in ethanol): 41%; Percentage of repellence of mosquitoes Aedes aegypti landing on the warm body (Aedes aegypti; 0.08 mg/mL in ethanol): 40%; Percentage of repellence of mosquitoes Aedes aegypti landing on the warm body (Aedes aegypti; 0.4 mg/mL in ethanol): 63%; Percentage of repellence of mosquitoes Aedes aegypti landing on the warm body (Aedes aegypti; 2 mg/mL in ethanol): 71%; Percentage of repellence of mosquitoes Aedes aegypti landing on the warm body (Aedes aegypti; 10 mg/mL in ethanol): 90%; Percentage of repellence of ticks Ixodes ricinus on the warm plate (Ixodes ricinus; 0.4 mg/mL in ethanol): 25.0%; Percentage of repellence of ticks Ixodes ricinus on the warm plate (Ixodes ricinus; 2 mg/mL in ethanol): 100.0%; Percentage of repellence of ticks Ixodes ricinus on the warm plate (Ixodes ricinus; 10 mg/mL in ethanol): 100.0%; repellence of ticks Ixodes ricinus on the warm plate (in words) (Ixodes ricinus; as soon as 0.02% applied on the warm plate): All ticks were repelled
